Data: EP4733310A1, “NOVEL PEPTIDE AND USE THEREOF” (Gemvax & Kael Co., Ltd., priority 2023, dated 2024)
Square brackets hold non-standard residues; d marks the D form. Peptide text beside a SMILES is read from it. pGlu = O=C1CC[C@@H](C(=O)O)N1

How the values were obtained:
amyloid-β = assay: Immunoblot of hippocampal protein samples with anti-amyloid antibody (6E10); format: in vivo; conditions: 5xFAD mice, 2 mg/kg subcutaneous, 3 times/week, 8 weeks, FIG. 5
Protocol: (§1) An efficacy evaluation of GV2001 based on an Alzheimer's disease animal model was conducted according to Table 3 below.
(§2) 5xFAD mice are a well-established mouse model of Alzheimer's disease, in which amyloid-β is produced in neurons. Amyloid-β accumulation begins at approximately 2 months of age, neuronal damage progresses from around 6 months of age, and impairment in spatial learning ability develops from approximately 9 months of age. The mice were purchased from Jackson Laboratory, and seven-month-old mice obtained through breeding were used in the experiment.
In order to determine amyloid-β levels in the brains of each group of mice, immunoblotting was performed on mouse hippocampal protein samples using an anti-amyloid antibody (6E10).

5xFAD mice = assay: Morris Water Maze Test in an Alzheimer's disease mouse model; format: in vivo; conditions: 2 mg/kg subcutaneous, 3 times/week, 8 weeks
Protocol: An efficacy evaluation of GV2001 based on an Alzheimer's disease animal model was conducted according to Table 3 below. [TABLE 3] [table] 5xFAD mice are a well-established mouse model of Alzheimer's disease, in which amyloid-β is produced in neurons. Amyloid-β accumulation begins at approximately 2 months of age, neuronal damage progresses from around 6 months of age, and impairment in spatial learning ability develops from approximately 9 months of age. The mice were purchased from Jackson Laboratory, and seven-month-old mice obtained through breeding were used in the experiment. […] On day 11, a probe test was performed. […] In addition, the time spent in the target quadrant was increased in the GV1001 and GV2001 groups, confirming improvements in spatial learning ability (FIG. 4C).

amyloid-β protein = assay: Anti-amyloid antibody (6E10) staining of brain tissue sections; format: in vivo; conditions: 5xFAD mice, 2 mg/kg subcutaneous, 3 times/week, 8 weeks; both the cerebral cortex and hippocampus; FIGS. 10 and 11
Protocol: as §1, §2
(§3) Mouse brain tissue sections were stained with thioflavin-S and anti-amyloid antibody (6E10) to identify amyloid-β plaques and amyloid-β protein, respectively.

[1] = Pharmacokinetic profile after intravenous administration to rats; format: in vivo; conditions: Sprague Dawley rats, FIG. 2
Protocol: (§4) To determine the pharmacokinetic profile of GV2001 prepared in Example 1, plasma was collected from rats administered with GV2001. The collected plasma was pretreated by protein precipitation using nine times the volume of methanol containing 0.1% formic acid, followed by centrifugation at 16,100 g for 10 minutes.
GV2001 and GV1001 were administered intravenously (IV) to three Sprague Dawley rats in each group. Blood samples were collected at 0.033, 0.083, 0.17, 0.25, 0.5, 1, and 2 hours after administration. The collected blood samples were centrifuged to separate plasma, pretreated, and analyzed using LC-MS. Pharmacokinetic parameters were calculated using the non-compartmental analysis model of the Phoenix WinNonlin (Pharsight, ver. 6.4, USA) program.

IL-1β, IL-6, and TNF-α = assay: qRT-PCR of inflammatory cytokine mRNA in hippocampal samples; format: in vivo; conditions: 5xFAD mice, 2 mg/kg subcutaneous, 3 times/week, 8 weeks, FIG. 7
Protocol: as §1, §2
mRNA levels of cytokines involved in inflammation (IL-1β, IL-6, and TNF-α) were analyzed using qRT-PCR in mouse hippocampal samples.

amyloid-β plaques = assay: Thioflavin-S staining of brain tissue sections; format: in vivo; conditions: 5xFAD mice, 2 mg/kg subcutaneous, 3 times/week, 8 weeks
Protocol: as §1, §2, §3

[2] = Stability in human plasma (LC-MS, residual peptide); format: in vitro ADME; conditions: 5 µM, 37 °C, 10, 60 and 240 minutes, FIG. 1
Protocol: GV2001 and GV1001 were each added to human plasma and diluted to a concentration of 5 µM, followed by incubation at 37 °C for 10, 60, and 240 minutes with stirring. The reaction mixture was collected and pretreated by plasma protein precipitation using methanol containing 0.1% formic acid. The resulting supernatants were collected and analyzed by LC-MS under the conditions shown in Table 1 below to determine the percentage of residual peptide relative to the initial peptide amount.

[3] = test system: retinal pigment epithelial cell line ARPE-19; assay: Epithelial-mesenchymal transition (cadherin 1, vimentin; confocal microscope) in an H2O2 cell model of age-related macular degeneration; format: cell-based; conditions: ARPE-19, H2O2 (50 µM), FIG. 15
Protocol: (§5) A cell model of age-related macular degeneration was established by treating the retinal pigment epithelial cell line ARPE-19 with hydrogen peroxide (H2O2) to generate reactive oxygen species.
(§6) The experimental groups were set up according to Table 4 below, and the efficacy of GV2001 was evaluated.
The degree of epithelial-mesenchymal transition (EMT), which indicates retinal pigment epithelial cell degeneration, was evaluated by observing changes in cadherin 1, an epithelial cell marker, and vimentin, a mesenchymal cell marker, using a confocal microscope.

[4] = test system: retinal pigment epithelial cells (ARPE-19); assay: Reactive oxygen species detection with DCF-DA in an H2O2 cell model of age-related macular degeneration; format: cell-based; conditions: ARPE-19, H2O2 (50 µM), FIG. 14
Protocol: as §5, §6
Using 2',7'-dichlorofluorescin diacetate (DCF-DA), a dye for detecting reactive oxygen species, changes in reactive oxygen species levels in retinal pigment epithelial cells (ARPE-19) treated with GV2001 were examined under a fluorescence microscope.

Aβ1-42 = Aβ1-42 ELISA of cerebral cortex protein samples; format: in vivo; conditions: 5xFAD mice, 2 mg/kg subcutaneous, 3 times/week, 8 weeks, FIG. 6
microglia = assay: Anti-Iba-1 antibody staining of brain tissue sections (gliosis); format: in vivo; conditions: 5xFAD mice, 2 mg/kg subcutaneous, 3 times/week, 8 weeks, FIGS. 12 and 13
Protocol: as §1, §2
Mouse brain tissue sections were stained with an anti-Iba-1 antibody, which stains microglia, to analyze the level of gliosis in the mouse brain.

[5] = Pharmacokinetic profile after subcutaneous administration to rats; format: in vivo; conditions: subcutaneous (SC), Sprague Dawley rats; FIG. 3
Protocol: as §4
GV2001 and GV1001 were administered subcutaneously (SC) to three Sprague Dawley rats in each group. Blood samples were collected at 0.033, 0.083, 0.17, 0.25, 0.5, 1, and 2 hours after administration. The collected blood samples were centrifuged to separate plasma, pretreated, and analyzed using LC-MS. Pharmacokinetic parameters were calculated using the non-compartmental analysis model of Phoenix WinNonlin (Pharsight ver. 6.4, USA).

[6] = H2O2 for 2 hours then post-treatment for 24 hours, high-dose group
[7] = pretreatment for 2 hours then H2O2 for 24 hours, low-dose group

SMILES: CC[C@H](C)[C@H](NC(=O)[C@H](Cc1ccccc1)NC(=O)[C@H](CCCNC(=N)N)NC(=O)[C@H](CC(C)C)NC(=O)[C@H](CCCNC(=N)N)NC(=O)[C@H](CO)NC(=O)[C@@H](NC(=O)[C@H](CC(C)C)NC(=O)[C@H](CC(C)C)NC(=O)[C@H](C)NC(=O)[C@@H]1CCCN1C(=O)[C@H](CCCNC(=N)N)NC(=O)[C@H](C)NC(=O)[C@H](CCC(=O)O)NC(=O)[C@@H]1CCC(=O)N1)[C@@H](C)O)C(=O)N1CCC[C@H]1C(=O)N[C@@H](CCCCN)C(N)=O [GV2001] ([pGlu]EARPALLTSRLRFIPK-NH2)
- amyloid-β levels (immunoblot, 6E10) (amyloid-β): reduction
- latency to locate the hidden platform (5xFAD mice; 10-day training period, FIG. 4A): marked improvements in latency
- number of platform-zone crossings (5xFAD mice; probe test on day 11, FIG. 4B): exhibited improvements
- time spent in the target quadrant (5xFAD mice; probe test on day 11, FIG. 4C): increased
- amyloid-β protein levels (6E10 antibody staining) (amyloid-β protein): more pronounced decrease in amyloid-β protein levels
- AUCt of GV2001 relative to GV1001 [1]: more than four times higher
- AUC(0-t) ([1]; rat, plasma, sampling up to 2 hours): 107 ng·h/mL
- mRNA levels of cytokines involved in inflammation (IL-1β, IL-6, and TNF-α) (IL-1β, IL-6, and TNF-α): greater reduction in cytokine expression compared to the 5xFAD group
- amyloid-β plaque deposition (thioflavin-S) (amyloid-β plaques; cerebral cortex, FIG. 8): reduction in amyloid-β plaque deposition
- amyloid-β plaque deposition (thioflavin-S) (amyloid-β plaques; hippocampus, FIG. 9): substantially reduced plaque deposition
- percentage of residual peptide relative to the peptide amount before reaction [2]: higher at each time point than that of GV1001
- progression of EMT (cadherin 1, vimentin) [3, 6]: reduced the progression of EMT
- progression of EMT (cadherin 1, vimentin) [3, 7]: reduced the progression of EMT
- DCF-DA fluorescence expression (reactive oxygen species) [4, 6]: decreased
- DCF-DA fluorescence expression (reactive oxygen species) [4, 7]: decreased
- amyloid-β levels (Aβ1-42 ELISA) (Aβ1-42): reduced level of amyloid-β protein
- gliosis levels (microglia staining, anti-Iba-1) (microglia): more pronounced decrease in gliosis levels
- in vivo stability (remaining in the body without degradation) [5]: greater in vivo stability than GV1001
